Data on four molecules can be found in ChEMBL document CHEMBL4330176, “Imidazoquinolines as Novel Inhibitors of LRRK2 Kinase Activity” (ACS Med Chem Lett, 2019).

SMILES strings stand for the structures.

The target in assay [1] is Leucine-rich repeat serine/threonine-protein kinase 2 (Homo sapiens, UniProt Q5S007). In words: Inhibition of recombinant wild-type GST-tagged LRRK2 (unknown origin) expressed in baculovirus expression system using fluorescein-labeled LRRKtide as substrate after 30 mins by Lanthascreen assay.
The target of assay [2] is Leucine-rich repeat serine/threonine-protein kinase 2 (Homo sapiens, UniProt Q5S007, G2019S). In words: Inhibition of GST-tagged LRRK2 G2019S mutant (unknown origin) expressed in baculovirus expression system using fluorescein-labeled LRRKtide as substrate after 30 mins by Lanthascreen assay.
Sequence of Leucine-rich repeat serine/threonine-protein kinase 2 (Homo sapiens, UniProt Q5S007, G2019S) (Q5S007 whole entry G2019S): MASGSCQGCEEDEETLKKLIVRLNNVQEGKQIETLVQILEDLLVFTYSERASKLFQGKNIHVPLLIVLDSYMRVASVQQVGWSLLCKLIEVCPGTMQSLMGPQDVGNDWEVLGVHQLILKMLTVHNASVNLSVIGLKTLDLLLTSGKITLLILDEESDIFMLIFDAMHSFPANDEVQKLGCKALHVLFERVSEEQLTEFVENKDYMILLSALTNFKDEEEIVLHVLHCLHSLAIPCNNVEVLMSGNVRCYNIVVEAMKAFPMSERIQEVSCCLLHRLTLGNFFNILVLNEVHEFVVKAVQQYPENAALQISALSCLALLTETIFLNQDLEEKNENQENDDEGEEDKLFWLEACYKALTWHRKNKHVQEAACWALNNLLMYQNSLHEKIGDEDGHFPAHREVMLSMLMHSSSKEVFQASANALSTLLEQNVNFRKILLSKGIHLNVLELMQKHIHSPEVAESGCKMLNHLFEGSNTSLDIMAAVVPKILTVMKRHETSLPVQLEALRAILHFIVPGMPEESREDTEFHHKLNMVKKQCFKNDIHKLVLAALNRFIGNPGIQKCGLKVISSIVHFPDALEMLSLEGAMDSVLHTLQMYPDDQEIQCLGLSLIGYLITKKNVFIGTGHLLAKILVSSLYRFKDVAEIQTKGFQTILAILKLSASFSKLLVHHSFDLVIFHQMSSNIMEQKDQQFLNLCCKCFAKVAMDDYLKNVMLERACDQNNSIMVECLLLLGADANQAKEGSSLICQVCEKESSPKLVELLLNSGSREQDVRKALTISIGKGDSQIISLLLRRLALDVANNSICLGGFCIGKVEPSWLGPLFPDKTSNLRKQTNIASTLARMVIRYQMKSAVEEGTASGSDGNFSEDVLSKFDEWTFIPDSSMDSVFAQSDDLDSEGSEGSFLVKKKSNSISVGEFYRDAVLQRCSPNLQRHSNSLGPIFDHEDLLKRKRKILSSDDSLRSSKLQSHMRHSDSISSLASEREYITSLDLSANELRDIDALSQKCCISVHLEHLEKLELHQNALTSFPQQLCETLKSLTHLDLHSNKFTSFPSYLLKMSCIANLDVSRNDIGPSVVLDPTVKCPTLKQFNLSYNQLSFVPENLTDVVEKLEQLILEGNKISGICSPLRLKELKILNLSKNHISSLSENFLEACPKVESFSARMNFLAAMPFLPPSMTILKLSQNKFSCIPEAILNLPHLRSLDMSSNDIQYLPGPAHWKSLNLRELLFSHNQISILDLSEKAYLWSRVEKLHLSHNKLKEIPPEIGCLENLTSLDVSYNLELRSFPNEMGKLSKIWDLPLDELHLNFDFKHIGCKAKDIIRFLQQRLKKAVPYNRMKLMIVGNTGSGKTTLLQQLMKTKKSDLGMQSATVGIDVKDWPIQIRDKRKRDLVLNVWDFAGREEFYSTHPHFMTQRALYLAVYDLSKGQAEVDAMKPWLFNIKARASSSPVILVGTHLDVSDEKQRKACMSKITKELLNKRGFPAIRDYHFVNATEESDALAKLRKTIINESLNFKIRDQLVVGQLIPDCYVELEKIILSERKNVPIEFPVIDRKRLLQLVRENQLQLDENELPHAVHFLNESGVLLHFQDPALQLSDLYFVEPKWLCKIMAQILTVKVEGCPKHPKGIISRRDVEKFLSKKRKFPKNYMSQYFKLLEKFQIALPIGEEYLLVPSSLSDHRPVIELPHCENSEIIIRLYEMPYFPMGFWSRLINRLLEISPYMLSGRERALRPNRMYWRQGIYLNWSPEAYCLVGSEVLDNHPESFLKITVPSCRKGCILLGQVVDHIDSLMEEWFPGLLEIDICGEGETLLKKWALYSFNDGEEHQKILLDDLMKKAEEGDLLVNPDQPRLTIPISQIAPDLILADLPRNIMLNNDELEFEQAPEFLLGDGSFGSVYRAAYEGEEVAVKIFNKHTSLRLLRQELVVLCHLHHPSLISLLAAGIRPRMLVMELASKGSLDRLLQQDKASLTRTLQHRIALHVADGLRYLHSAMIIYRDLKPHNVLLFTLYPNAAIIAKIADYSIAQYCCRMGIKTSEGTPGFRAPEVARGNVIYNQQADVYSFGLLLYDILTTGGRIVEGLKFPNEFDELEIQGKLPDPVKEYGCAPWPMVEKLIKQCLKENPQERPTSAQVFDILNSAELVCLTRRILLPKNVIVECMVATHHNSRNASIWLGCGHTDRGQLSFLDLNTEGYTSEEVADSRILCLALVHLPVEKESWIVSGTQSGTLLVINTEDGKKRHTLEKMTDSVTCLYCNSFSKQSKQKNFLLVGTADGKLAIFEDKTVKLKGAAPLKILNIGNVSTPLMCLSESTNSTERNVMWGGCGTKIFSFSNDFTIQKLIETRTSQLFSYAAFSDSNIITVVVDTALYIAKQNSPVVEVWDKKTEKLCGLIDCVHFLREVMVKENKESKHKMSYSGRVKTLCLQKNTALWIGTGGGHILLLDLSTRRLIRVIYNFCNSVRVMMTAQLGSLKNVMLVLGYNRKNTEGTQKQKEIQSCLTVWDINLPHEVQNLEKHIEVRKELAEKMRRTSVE

Sequence of Leucine-rich repeat serine/threonine-protein kinase 2 (Homo sapiens, UniProt Q5S007) (Q5S007 whole entry): as the sequence (Q5S007 whole entry G2019S) above, with S2019G counted along it

Consider `N#Cc1ccc2ncc3nc(Cc4csnn4)n([C@@H]4CC[C@H](F)C4)c3c2c1` (relative stereo), for which the IC50 in assay [1] was determined as 9.73 nM; in assay [2], 9.75 nM.
`CCc1nc2cnc3ccc(Cl)cc3c2n1[C@@H]1CCO[C@H](CC#N)C1`: in assay [2], the IC50 is 8.7 nM.
Take `Cc1nc(Cc2nc3cnc4ccc(C(F)(F)F)cc4c3n2[C@@H]2CCOCC2(F)F)no1`: the IC50 in assay [1] was found to be 25.7 nM; in assay [2] it was 26.5 nM.
In assay [2], `[2H]C([2H])([2H])c1cnc(Cc2nc3cnc4ccc(Cl)cc4c3n2[C@@H]2CCO[C@H](C)C2)cn1` gave an IC50 of 2.16 nM.
